Structures can show the parent of a compound that is named as a salt. Where two headings read alike, the source gives them in different places.
Legend:
[1] = target: T1, recombinant human Lp-PLA2 (Homo sapiens, UniProt Q13093); assay: Recombinant human Lp-PLA2 assay (rhLp-PLA2, PED6 assay); type: biochemical
T1 sequence (Q13093 22-441): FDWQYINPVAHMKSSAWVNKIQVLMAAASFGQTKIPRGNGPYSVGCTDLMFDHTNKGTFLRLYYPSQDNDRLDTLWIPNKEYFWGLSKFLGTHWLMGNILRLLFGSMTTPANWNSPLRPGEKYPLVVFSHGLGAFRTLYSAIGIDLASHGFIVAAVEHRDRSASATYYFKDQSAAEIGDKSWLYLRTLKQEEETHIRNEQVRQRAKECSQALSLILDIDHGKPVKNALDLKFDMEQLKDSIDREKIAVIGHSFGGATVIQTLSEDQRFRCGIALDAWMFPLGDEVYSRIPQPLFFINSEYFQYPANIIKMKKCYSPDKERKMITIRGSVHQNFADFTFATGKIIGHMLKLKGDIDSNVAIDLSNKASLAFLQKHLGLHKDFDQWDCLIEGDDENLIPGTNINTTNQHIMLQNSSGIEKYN

[2] = target: T2, Lp-PLA2 from plasma (pooled human plasma) (Homo sapiens, UniProt Q13093); assay: Lp-PLA2 human plasma assay (Thio-PAF assay); type: biochemical; settings: text thresholds, read-out: pIC50 values in the thio-PAF assay (converted)
T2 construct: 8 μL pooled human plasma; from tissue; host or cells: pooled human plasma
T2 sequence (Q13093 22-441): T1 sequence (Q13093 22-441)
Outline: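 Pooled human plasma preincubated 30 min with compound, then thio-PAF substrate with NEM and CPM added in pH 7.4 HEPES/NaCl/CHAPS buffer; reaction 2 min at room temperature, quenched with 5% TFA, fluorescence read at ex 380/em 485 after 40 min; pIC50 from curve fitting.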

[3] = system: proinflammatory (M1) and anti-inflammatory (M2) markers in macrophages; assay: EAE model (MBP immunization), ex vivo realtime PCR analysis of M1 and M2 macrophage markers; type: in vivo, rats; settings: macrophages ex vivo (splenic, day 13 post MBP-immunization; CNS infiltrating cells), compound treated vs control
Experimental: A further study was carried out to study the impact of Lp-PLA2 inhibitors on modulating M1/M2 imbalance. In this study, rats were induced to develop experimental autoimmune encephalomyelitis (EAE) by immunization with myelin basic protein (MBP) antigen and treated with a known Lp-PLA2 inhibitor: 549-Methoxy-4-oxo-6,7-dihydro-4H-pyrimido[6,1-a]isoquinolin-2-yl)oxy)-2-(3-(trifluoromethyl)phenoxy)benzonitrile (See PCT application no. PCT/CN2011/001597) For preventive treatment, compound administration started at day 0 whereas it started at 7 day in therapeutic treatment. Rats were subsequently monitored for symptoms of EAE. Rats were immunized with MBP to develop EAE and symptoms were monitored daily. Plasma Lp-PLA2 activity and LysoPC concentration were determined at different time points through the course of EAE.
Ex vivo analysis of proinflammatory (M1) and anti-inflammatory (M2) markers in control and compound treated EAE […]. Splenic macrophages were harvested at day 13 post MBP-immunization and assayed for expression of a variety of markers by realtime PCR. CNS infiltrating cells were harvested and macrophages were analyzed for expression of M1 and M2 markers by realtime PCR.

[4] = text thresholds, upper limit for pIC50 in this assay is 9.3, read-out: pIC50 values in the PED6 assay (converted)
[5] = upper limit for pIC50 obtained in this PED6 assay is 9.3, read-out: rhLp-PLA2 (PED6 assay) (pIC50) (converted)

Row | IC50 [1, 4] | IC50 [2] | IC50 [1, 5] | SMILES | M1 markers (expression by realtime PCR) [3] | M2 markers (expression by realtime PCR) [3]
1 | ≤ 1 nM | ≤ 100 nM | – | COc1ncc(Cc2cn(C)c(SCc3ccc(Oc4ccc(F)c(C(F)(F)F)c4)c(C#N)c3)nc2=O)cn1 [E90, 2-{[4-fluoro-3-(trifluoromethyl)phenyl]oxy}-5-{[(1-methyl-5-{[2-(methyloxy)-5-pyrimidinyl]methyl}-4-oxo-1,4-dihydro-2-pyrimidinyl)thio]methyl}benzonitrile] | – | –
2 | ≤ 10 nM | ≤ 100 nM | – | Cc1ncc(Cc2c[nH]c(NCCc3ccc(Oc4ccc(Cl)c(C(F)(F)F)c4)cc3)nc2=O)cn1 [E195, 2-{2-[4-(4-Chloro-3-trifluoromethyl-phenoxy)-phenyl]-ethylamino}-5-(2-methyl-pyrimidin-5-ylmethyl)-1H-pyrimidin-4-one] | – | –
3 | ≤ 1 nM | ≤ 100 nM | – | Cn1cc(Cc2cn(C)c(SCc3ccc(Oc4cccc(C(F)(F)F)c4)c(C#N)c3)nc2=O)cn1 [E95, 5-(((1-methyl-5-((1-methyl-1H-pyrazol-4-yl)methyl)-4-oxo-1,4-dihydropyrimidin-2-yl)thio)methyl)-2-(3-(trifluoromethyl)phenoxy)benzonitrile, trifluoroacetic acid salt] | – | –
4 | ≤ 10 nM | ≤ 100 nM | – | Cc1ccc(Cc2c[nH]c(NCCc3ccc(Oc4ccc(Cl)c(C(F)(F)F)c4)cc3)nc2=O)cn1 [E210, 2-{2-[4-(4-Chloro-3-trifluoromethyl-phenoxy)-phenyl]-ethylamino}-5-(6-methyl-pyridin-3-ylmethyl)-1H-pyrimidin-4-one] | – | –
5 | ≤ 10 nM | ≤ 1000 nM | – | COc1ncc(Cc2c[nH]c(OCCc3ccc(Oc4cnc(C(F)(F)F)nc4)cc3)nc2=O)cn1 [E143, 5-{[2-(methyloxy)-5-pyrimidinyl]methyl}-2-{[2-(4-{[2-(trifluoromethyl)-5-pyrimidinyl]oxy}phenyl)ethyl]oxy}-4(1H)-pyrimidinone] | – | –
6 | ≤ 10 nM | ≤ 1000 nM | 3.16 nM | O=c1cc(Cc2c[nH]c(NCCc3ccc(Oc4ccc(Cl)c(C(F)(F)F)c4)cc3)nc2=O)cc[nH]1 [E216, 2-{2-[4-(4-Chloro-3-trifluoromethyl-phenoxy)-phenyl]-ethylamino}-5-(2-oxo-1,2-dihydro-pyridin-4-ylmethyl)-1H-pyrimidin-4-one] | – | –
7 | – | – | – | COc1ccc2c(c1)CCn1c-2cc(Oc2ccc(Oc3cccc(C(F)(F)F)c3)c(C#N)c2)nc1=O | decrease | increase
8 | ≤ 10 nM | ≤ 1000 nM | – | CN(CCc1ccc(Oc2ccc(Cl)c(C(F)(F)F)c2)cc1)c1nc(=O)c(Cc2cncnc2)cn1C [E196, 2-({2-[4-(4-Chloro-3-trifluoromethyl-phenoxy)-phenyl]-ethyl}-methyl-amino)-1-methyl-5-pyrimidin-5-ylmethyl-1H-pyrimidin-4-one] | – | –
9 | ≤ 10 nM | ≤ 1000 nM | – | N#Cc1cc(CCNc2nc(=O)c(Cc3cncnc3)c[nH]2)ccc1Oc1ccc(C(F)(F)F)cn1 [E205, 5-[2-(4-oxo-5-pyrimidin-5-ylmethyl-1,4-dihydro-pyrimidin-2-ylamino)-ethyl]-2-(5-trifluoromethyl-pyridin-2-yloxy)benzonitrile] | – | –
10 | ≤ 10 nM | ≤ 1000 nM | – | COc1ncc(Cc2c[nH]c(NCCc3ccc(Oc4ccc(C(F)(F)F)c(Cl)c4)cc3)nc2=O)cn1 [E206, 2-{2-[4-(3-chloro-4-trifluoromethyl-phenoxy)-phenyl]ethylamino}-5-(2-methoxy-pyrimidin-5-ylmethyl)-1H-pyrimidin-4-one] | – | –
11 | ≤ 10 nM | ≤ 100 nM | – | O=c1nc(NCCc2ccc(Oc3ccc(Cl)c(C(F)(F)F)c3)cc2)[nH]cc1Cc1ccnnc1 [E214, 2-{2-[4-(4-chloro-3-trifluoromethyl-phenoxy)-phenyl]ethylamino}-5-pyridazin-4-ylmethyl-1H-pyrimidin-4-one] | – | –
12 | ≤ 1 nM | ≤ 100 nM | – | COc1ncc(Cc2c[nH]c(OCCc3ccc(Oc4ccc(Cl)c(C(F)(F)F)c4)c(F)c3)nc2=O)cn1 [E172, 2-{[2-(4-{[4-chloro-3-(trifluoromethyl)phenyl]oxy}-3-fluorophenyl)ethyl]oxy}-5-{[2-(methyloxy)-5-pyrimidinyl]methyl}-4(1H)-pyrimidinone] | – | –
13 | ≤ 10 nM | ≤ 100 nM | 6.31 nM | O=c1ccc(Cc2c[nH]c(NCCc3ccc(Oc4ccc(Cl)c(C(F)(F)F)c4)cc3)nc2=O)c[nH]1 [E212, 2-{2-[4-(4-Chloro-3-trifluoromethyl-phenoxy)-phenyl]-ethylamino}-5-(6-oxo-1,6-dihydro-pyridin-3-ylmethyl)-1H-pyrimidin-4-one] | – | –
